From ChEMBL document CHEMBL1201862, “PubChem BioAssay data set” (2004)
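Interpolation was linear, between the two tested concentrations surrounding the appropriate level; five concentrations were tested over 48 hours in 96-well plates. GI50 = concentration required for 50% inhibition of growth.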 Active and inactive are the calls of the source. Rule as the data show it: active = GI50 up to about 1.1 µM and inactive = higher.

How the values were obtained:
Experiment in all cases: NCI-60 cell line screen, 48 h
COLO 205 = test system: COLO 205
K562 = test system: K562
SK-MEL-28 = test system: SK-MEL-28
RXF 393 = test system: RXF 393
SR = test system: SR
SK-MEL-5 = test system: SK-MEL-5
M14 = test system: M14
786-0 = test system: 786-0
UACC-257 = test system: UACC-257
ACHN = test system: ACHN
SN12C = test system: SN12C
A549 = test system: A549
OVCAR-3 = test system: OVCAR-3
TK-10 = test system: TK-10
SF-268 = test system: SF-268
MDA-N = test system: MDA-N
MCF7 = test system: MCF7
NCI/ADR-RES = test system: NCI/ADR-RES
EKVX = test system: EKVX
OVCAR-5 = test system: OVCAR-5
HOP-62 = test system: HOP-62
SK-OV-3 = test system: SK-OV-3
MDA-MB-231 = test system: MDA-MB-231
RPMI-8226 = test system: RPMI-8226
U-251 = test system: U-251
OVCAR-8 = test system: OVCAR-8
SNB-19 = test system: SNB-19
HT-29 = test system: HT-29
IGROV-1 = test system: IGROV-1
HCT-116 = test system: HCT-116
A498 = test system: A498
MDA-MB-435 = test system: MDA-MB-435
UACC-62 = test system: UACC-62
LOX IMVI = test system: LOX IMVI
HCC 2998 = test system: HCC 2998
NCI-H460 = test system: NCI-H460
NCI-H23 = test system: NCI-H23
MOLT-4 = test system: MOLT-4
SF-539 = test system: SF-539
CCRF-CEM = test system: CCRF-CEM
UO-31 = test system: UO-31
DU-145 = test system: DU-145
OVCAR-4 = test system: OVCAR-4
SNB-75 = test system: SNB-75
PC-3 = test system: PC-3
KM12 = test system: KM12
Hs-578T = test system: Hs-578T
HL-60 = test system: HL-60
SF-295 = test system: SF-295
Malme-3M = test system: Malme-3M
BT-549 = test system: BT-549
SW-620 = test system: SW-620
CAKI-1 = test system: CAKI-1
HCT-15 = test system: HCT-15
NCI-H226 = test system: NCI-H226

Measured: GI50

COc1ccccc1C(C1=C(O)COC1=O)c1cc2c(cc1OC(C)=O)OCO2 (stereo not given)
> 100 µM: HCT-15
inactive: COLO 205 > 100 µM | K562 > 100 µM | SK-MEL-28 > 100 µM | RXF 393 > 100 µM | SR > 100 µM | SK-MEL-5 > 100 µM | M14 > 100 µM | 786-0 > 100 µM | UACC-257 > 100 µM | ACHN > 100 µM | SN12C > 100 µM | A549 > 100 µM | OVCAR-3 > 100 µM | TK-10 > 100 µM | SF-268 > 100 µM | MDA-N > 100 µM | MCF7 > 100 µM | NCI/ADR-RES > 100 µM | EKVX > 100 µM | OVCAR-5 > 100 µM | HOP-62 > 100 µM | SK-OV-3 > 100 µM | MDA-MB-231 > 100 µM | RPMI-8226 > 100 µM | U-251 > 100 µM | OVCAR-8 > 100 µM | SNB-19 > 100 µM | HT-29 > 100 µM | IGROV-1 > 100 µM | HCT-116 > 100 µM | A498 > 100 µM | MDA-MB-435 > 100 µM | UACC-62 > 100 µM | LOX IMVI > 100 µM | HCC 2998 > 100 µM | NCI-H460 > 100 µM | NCI-H23 > 100 µM | MOLT-4 > 100 µM | SF-539 > 100 µM | CCRF-CEM > 100 µM | UO-31 > 100 µM | DU-145 > 100 µM | OVCAR-4 > 100 µM | SNB-75 > 100 µM | PC-3 > 100 µM | KM12 > 100 µM | Hs-578T > 100 µM | HL-60 > 100 µM | SF-295 > 100 µM | Malme-3M > 100 µM | BT-549 > 100 µM | SW-620 > 100 µM | CAKI-1 > 100 µM | NCI-H226 > 100 µM
